In patent US20060281901A1, “Method for the production of amyloid-beta peptide using ubiquitin” (priority 2005, published 2006):

Key:
[1] = tested on: Human neuroblastoma SH-SY5Y cell line; assay: MTT assay of cell activity (mitochondria dehydrogenase activity); type: cell-based; conditions: for degree of suppression of the cell activity by concentration (MTT): SH-SY5Y cells, 1, 2 or 4 μM, 24 hrs, FIG. 4A
Method: To compare the physiological activity of the genetic recombinant amyloid-β peptide produced according to the present invention with that of the amyloid-β peptide produced by a chemical synthetic method, their mitochondrial activities in eykaryotic cells were examined as follows:
First, 0.45 mg of the amyloid-β peptide prepared in Example 3 was dissolved in 20 μl of dimethyl sulfoxide, and 980 μl of DMEM was added thereto, to prepare the amyloid-β peptide solution at a concentration of 100 μM, which was stored at 4[…] for 24 hrs and subjected to centrifugation to separate the supernatant from the precipitate. The supernatant was distributed to an eppendorf tube at a volume of 50 μl and stored at −80[…].
(§1) Human neuroblastoma SH-SY5Y cell line (ATCC CRL-2266) was suspended in DMEM containing 10% FBS, distributed to each well of a 96-well plate at a concentration of 7×10^3 cells/well, and then, cultured at 37 °C for 24 hrs. The genetic recombinant amyloid-β peptide solution prepared above was added to each well at a concentration of 1, 2 or 4 μM, and the well plate was incubated at 37 °C for 24 hrs. The cell activity was measured by means of MTT (3-(4,5-dimethylthiazol-2-yl)-2,5-diphenyltetrazolium bromide) assay which is capable of measuring the in vivo mitochondria dehydrogenase activity. MTT was added to each well at a concentration of 0.8 mg/ml, and the reactants in the well were allowed to react at 37 °C for 5 hrs to induce in vivo dehydrogenase reaction of mitochondria. Formazan crystals generated from such reaction were dissolved in dimethyl sulfoxide and its adsorbance was measured at 550 nm.
Also shown in FIG. [[4a]]4A are the results obtained using the recombinant ubiquitin (H6Ub: ●) control, the ubiquitin-amyloid-β peptide fusion protein (H6Ub-Aβ42: ▪) and the chemically synthesized amyloid-β peptide (Aβ42: □).

[2] = tested on: Human neuroblastoma SH-SY5Y cell line; assay: level of apoptosis by trypan blue staining; type: cell-based; conditions: 5 μM, 36 hrs, FIG. 4C
Method: as §1
After the cells were treated with 5 μM of the amyloid-β peptide for 36 hrs, black cells stained with trypan blue were examined to determine the level of apoptosis induced.

[3] = listed as recombinant amyloid-β peptide

rAβ42: genetic recombinant amyloid-β peptide (amyloid-beta42, SEQ ID NO: 19) cleaved from a ubiquitin fusion protein expressed in E. coli
changes in the cell activity according to the treatment time (MTT) ([1]; SH-SY5Y cells, 5 μM, 12, 24 and 48 hrs, FIG. 4B): as the treatment time becomes longer, the cell activity becomes further reduced | degree of suppression of the cell activity by concentration (MTT) [1]: can suppress the cell activity just like the chemically synthesized amyloid-β peptide | degree of suppression of the cell activity by concentration (MTT) [1, 3]: can suppress the cell activity | level of apoptosis induced (trypan blue staining) [2]: showed an apoptotic activity, which was significantly higher than the recombinant ubiquitin (H6Ub) or ubiquitin-amyloid fusion protein (H6Ub-Aβ42), the activity being equal to, or slightly higher than, the chemically synthesized amyloid-β peptide (Aβ42) | level of apoptosis induced (trypan blue staining) [2, 3]: induce apoptosis to an extent which is equal to that achievable with chemically synthesized amyloid-β peptide
